The source of these data is patent publication US20190234956A1 (priority 2016, published 2019).

The subject of data set [1] is Ms sGC-NT23. Briefly: Photoaffinity labeling with IWP-854, western blot, Ms sGC-NT23. In kind it is binding, Manduca sexta.
The subject of a further data set is Ms sGC-β1. Briefly: Photoaffinity labeling with IWP-854, western blot, Ms sGC-β1. The data set is classed as binding, Manduca sexta. A general note: In western blotting, separated proteins are transferred to a membrane and probed.
A further data set is described as follows: Compound solubility. In kind it is physicochemical.
The test system of data set [2] is bacterial H-NOX proteins (Cb SONO, Ns H-NOX, So H-NOX, Sw H-NOX). In kind it is binding.
The test system is the same in data set [3]. In kind it is binding. This is another data set of the same source.
Data set [4] deals with Ms sGC-NT23. Briefly: Determination of CO dissociation constants, Ms sGC-NT23. In kind it is binding, Manduca sexta. The following applies: stimulator 5 μM, versus no stimulator.
For the next data set, the target named is T1, human sGC (Homo sapiens, UniProt Q02153).
T1 construct: Hs SGC-β1 (β1 1-619-His6); expressed in transfected cells; host or cells: HEK293T
T1 sequence (Q02153 1-619): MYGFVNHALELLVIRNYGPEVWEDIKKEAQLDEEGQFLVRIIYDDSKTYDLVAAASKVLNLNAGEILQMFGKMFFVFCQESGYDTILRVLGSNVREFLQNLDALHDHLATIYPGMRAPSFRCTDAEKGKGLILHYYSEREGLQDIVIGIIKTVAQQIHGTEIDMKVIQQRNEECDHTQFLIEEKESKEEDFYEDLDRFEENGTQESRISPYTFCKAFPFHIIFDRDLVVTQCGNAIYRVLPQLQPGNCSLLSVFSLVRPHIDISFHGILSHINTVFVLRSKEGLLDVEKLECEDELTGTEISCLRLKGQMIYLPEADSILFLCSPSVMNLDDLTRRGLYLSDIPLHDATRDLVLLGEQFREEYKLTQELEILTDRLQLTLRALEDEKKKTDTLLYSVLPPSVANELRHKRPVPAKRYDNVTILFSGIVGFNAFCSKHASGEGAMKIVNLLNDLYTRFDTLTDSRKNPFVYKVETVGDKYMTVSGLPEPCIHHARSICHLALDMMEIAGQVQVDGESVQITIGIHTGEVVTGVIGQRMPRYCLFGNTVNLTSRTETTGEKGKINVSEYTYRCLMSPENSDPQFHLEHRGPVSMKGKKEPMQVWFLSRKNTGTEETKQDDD
T1 sequence (Q02108 1-690 partner): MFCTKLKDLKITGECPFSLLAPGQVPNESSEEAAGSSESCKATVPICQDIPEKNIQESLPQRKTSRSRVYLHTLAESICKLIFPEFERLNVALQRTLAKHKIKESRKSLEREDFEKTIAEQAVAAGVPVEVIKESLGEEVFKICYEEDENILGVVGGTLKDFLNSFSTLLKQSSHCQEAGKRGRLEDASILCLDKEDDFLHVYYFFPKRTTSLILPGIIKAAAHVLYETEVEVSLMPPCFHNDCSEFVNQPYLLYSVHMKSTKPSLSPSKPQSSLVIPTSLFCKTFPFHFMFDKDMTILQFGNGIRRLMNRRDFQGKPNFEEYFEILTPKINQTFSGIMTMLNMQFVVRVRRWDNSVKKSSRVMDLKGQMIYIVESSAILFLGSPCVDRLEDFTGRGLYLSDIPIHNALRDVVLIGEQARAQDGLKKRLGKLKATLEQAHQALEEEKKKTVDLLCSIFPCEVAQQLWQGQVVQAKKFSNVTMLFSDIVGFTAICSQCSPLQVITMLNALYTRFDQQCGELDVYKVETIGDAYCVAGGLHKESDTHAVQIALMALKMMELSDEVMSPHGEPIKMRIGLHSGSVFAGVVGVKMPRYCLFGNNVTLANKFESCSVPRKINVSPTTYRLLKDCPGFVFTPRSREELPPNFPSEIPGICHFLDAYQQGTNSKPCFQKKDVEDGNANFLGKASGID
Description: cGMP measurement, catalytic activity of human sGC in transfected HEK293T lysate. The data set is classed as biochemical. Conditions: stimulator 5 μM.

The target in the next data set is T2, full-length Hs sGC (Homo sapiens, UniProt Q02153).
T2 construct: Full-length human sGC was purchased from Enzo Life Sciences, Inc; purchased Enzo Life Sciences, Inc
T2 sequence (Q02153 1-619): T1 sequence (Q02153 1-619)
T2 sequence (Q02108 1-690 partner): T1 sequence (Q02108 1-690 partner)
Description: Photoaffinity labeling with IWP-854, western blot, full-length Hs sGC. The data set is classed as binding. Conditions: IWP-854 1 μM; not competed away with excess stimulator.

The conditions of data set [5]: background statement; cited from earlier work.

Regarding `Nc1nc(-c2nn(Cc3ccccc3F)c3ncccc23)ncc1C1CC1` [BAY 41-2272, reference compound], the “competition of IWP-854 cross-linking” value in the data set with Ms sGC-NT23 [1] (BAY 41-2272 1-25 μM against IWP-854 1 μM) is recorded as “attenuated IWP-854 cross-linking to Ms sGC-NT23 in a concentration-dependent manner”. Moreover, the entries for the “competition of IWP-854 labeling” value (in the data set on Ms sGC-β1 (BAY 41-2272 against IWP-854); in [3]) were “failed to diminish IWP-854 labeling” and “reduced but not eliminated”, respectively. Also, the compound solubility entry in “Compound solubility” is “poor compound solubility”. The “enhancement of CO binding” value in [2] was “did not enhance CO binding”. For the same compound, the “enhancement of CO affinity” value in the data set on Ms sGC-NT23 [4] turned out to be 14 fold.

In the case of `CC1(CCCN(CCOCCOCCOCCOCCC(=O)NCCOCCOCCOCCOCCOCCOCCOCCOCCOCCOCCOC(C)(C)CCNC(=O)CCCCC2SC[C@@H]3NC(=O)N[C@H]23)c2nc(-c3cc(-c4ccon4)n(Cc4ccccc4F)n3)ncc2F)N=N1` (stereo partly shown) [IWP-854], in the data set on Ms sGC-NT23 [1] (IWP-854 1 μM, 15 min UV, anti-biotin western blot), the “subunit cross-linked by IWP-854” value is given as “cross-links exclusively to the β1 subunit”. The “labeling of the isolated β1 subunit” value with Ms sGC-β1 (β1 residues 1-380) was “labeled the isolated β1 subunit”. At human sGC (absence of added NO), the “increase of sGC activity over basal levels” value is given as 12 fold. The “stimulation of recombinant human sGC, compared with BAY 41-2272” value at human sGC (basal and NO stimulated) is “stimulate to a similar extent as BAY 41-2272”. Moreover, the “increase of sGC activity over basal” value on human sGC (upon addition of NO (DEA/NO 100 μM)) came to 84 fold. For the same compound, in data set [3], the “amount of IWP-854 required for photoaffinity labeling relative to sGC constructs” value turned out to be 10 fold and the “labeling of bacterial H-NOX proteins” value is on record as “labeled all four bacterial H-NOX proteins”. Moreover, the “labeling of the α1 subunit” value at full-length Hs sGC is “Faint labeling was observed on the α1 subunit”. Besides, in the data set with Ms sGC-NT23 [4], the “enhancement of CO affinity” value is given as 34 fold.

In the case of `O=c1[nH]c(-c2cc(-c3ccon3)n(Cc3ccccc3F)n2)ncc1F` [IWP-051], in data set [5], the “solubility compared with traditional stimulators” value was “improved solubility over traditional stimulators”.
